Measured values: ChEMBL document CHEMBL5233217, “Modification of 7-piperazinylquinolone antibacterials to promising anticancer lead compounds: Synthesis and in vitro studies” (Eur J Med Chem, 2020)

Legend:
EJ = assay: Anticancer activity against human EJ cells assessed as reduction in cell viability incubated for 72 hrs by MTT assay; type: functional, cell-based
A-431 = assay: Anticancer activity against human A-431 cells assessed as reduction in cell viability incubated for 72 hrs by MTT assay; type: functional, cell-based; conditions: A-431, 72 h
MCF7 = assay: Anticancer activity against human MCF7 cells assessed as reduction in cell viability incubated for 72 hrs by MTT assay; type: functional, cell-based; conditions: MCF7, 72 h
KB = assay: Anticancer activity against human KB cells assessed as reduction in cell viability incubated for 72 hrs by MTT assay; type: functional, cell-based
SW480 = assay: Anticancer activity against human SW480 cells assessed as reduction in cell viability incubated for 72 hrs by MTT assay; type: functional, cell-based; conditions: SW480, 72 h
SK-MEL3 = assay: Anticancer activity against human SK-MEL3 cells assessed as reduction in cell viability incubated for 72 hrs by MTT assay; type: functional, cell-based; conditions: SK-MEL3, 72 h
[1] = system: Panel NCI-60 (60 carcinoma cell lines); assay: Anticancer activity against human Panel NCI-60 (60 carcinoma cell lines) cells assessed as cell growth inhibition incubated for 48 hrs by sulforhodamine B assay; type: functional
HL-60 [2] = assay: Cytotoxicity against human HL-60 cells assessed as reduction in cell viability by MTT assay; type: functional, cell-based
[3] = Cytotoxicity against Chinese hamster CHO cells assessed as reduction in cell viability by MTT assay; type: toxicity, cell-based, Cricetulus griseus
L1210 [4] = assay: Cytotoxicity against mouse L1210 cells assessed as reduction in cell viability by MTT assay; type: functional, cell-based
L1210 [5] = assay: Antiproliferative activity against mouse L1210 cells assessed as reduction in cell viability by MTT assay; type: functional, cell-based
[6] = Cytotoxicity against Chinese hamster CHO cells assessed as reduction in cell viability incubated for 48 hrs by MTT assay; type: toxicity, cell-based, Cricetulus griseus
HL-60 [7] = assay: Cytotoxicity against human HL-60 cells assessed as reduction in cell viability incubated for 48 hrs by MTT assay; type: functional, cell-based; conditions: HL-60, 48 h
L1210 [8] = assay: Cytotoxicity against mouse L1210 cells assessed as reduction in cell viability incubated for 48 hrs by MTT assay; type: functional, cell-based; conditions: L1210, 48 h
A549 = assay: Antitumor activity against human A549 cells assessed as reduction in cell viability incubated for 4 hrs by MTT assay; type: functional, cell-based; conditions: A549, 4 h
CT26 = assay: Antitumor activity against mouse CT26 cells assessed as reduction in cell viability incubated for 4 hrs by MTT assay; type: functional, cell-based; conditions: CT26, 4 h

`CO/N=C(/CN1CCN(c2cc3c(cc2F)c(=O)c(C(=O)O)cn3C2CC2)CC1)c1ccc(Cl)s1` showed an IC50 (EJ) of under 10 µM, an IC50 (A-431) of under 10 µM and an IC50 (MCF7) of under 10 µM. The IC50 (KB) was under 10 µM, the IC50 (SW480) was under 10 µM and the IC50 (SK-MEL3) was under 10 µM.
With `CCn1cc(C(=O)O)c(=O)c2cc(F)c(N3CCN(S(=O)(=O)c4cccc5ccccc45)CC3)cc21` the GI50 [1] was 2.63 µM.
In the case of `CCn1cc(C(=O)O)c(=O)c2cc(F)c(N3CCN(S(=O)(=O)c4ccc(Cl)cc4Cl)CC3)cc21`, the GI50 [1] is reported as 2.63 µM.
Molecule `O=C(O)c1cn(C2CC2)c2cc(N3CCN(S(=O)(=O)c4ccc(Cl)c(Cl)c4)CC3)c(F)cc2c1=O` has a GI50 [1] of 2.63 µM.
With `Cc1cc(C)c(S(=O)(=O)N2CCN(c3cc4c(cc3F)c(=O)c(C(=O)O)cn4C3CC3)CC2)c(C)c1` the GI50 [1] was 2.63 µM.
With `O=C(N/N=C/c1ccccc1O)c1cn(C2CC2)c2cc(N3CCNCC3)c(F)cc2c1=O` the IC50 (HL-60 [2]) was 25 µM, the IC50 [3] was 25 µM and the IC50 (L1210 [4]) was 25 µM.
`COc1ccc(/C=N/NC(=O)c2cn(C3CC3)c3cc(N4CCNCC4)c(F)cc3c2=O)cc1O` gave an IC50 (HL-60 [2]) of 25 µM, an IC50 [3] of 25 µM and an IC50 (L1210 [4]) of 25 µM.
In the case of `O=C(N/N=C/c1ccccc1)c1cn(C2CC2)c2cc(N3CCNCC3)c(F)cc2c1=O`, the IC50 (HL-60 [2]) is reported as 25 µM, the IC50 [3] is reported as 25 µM and the IC50 (L1210 [4]) is reported as 25 µM.
For `COc1ccc(/C=N/NC(=O)c2cn(C3CC3)c3cc(N4CCNCC4)c(F)cc3c2=O)cc1`, the IC50 (HL-60 [2]) was 25 µM, the IC50 [3] was 25 µM and the IC50 (L1210 [4]) was 25 µM.
Work on `COc1cc(/C=N/NC(=O)c2cn(C3CC3)c3cc(N4CCNCC4)c(F)cc3c2=O)cc(OC)c1OC` yielded an IC50 (HL-60 [2]) of 25 µM, an IC50 [3] of 25 µM and an IC50 (L1210 [4]) of 25 µM.
In the case of `O=C(N/N=C/c1ccc(F)cc1)c1cn(C2CC2)c2cc(N3CCNCC3)c(F)cc2c1=O`, the IC50 (HL-60 [2]) is reported as 25 µM, the IC50 [3] is reported as 25 µM and the IC50 (L1210 [4]) is reported as 25 µM.
In the case of `CCn1cc(C(=O)O)c(=O)c2cc(F)c(N3CCN(C/C(=N/OC)c4ccc(Cl)s4)CC3)cc21`, the IC50 (EJ) is reported as under 10 µM, the IC50 (A-431) is reported as under 10 µM and the IC50 (MCF7) is reported as under 10 µM. It also gave an IC50 (KB) of under 10 µM, an IC50 (SW480) of under 10 µM and an IC50 (SK-MEL3) of under 10 µM.
Molecule `O=C(O)c1cn(C2CC2)c2cc(N3CCN(C/C(=N/OCc4ccccc4)c4ccc(Cl)s4)CC3)c(F)cc2c1=O` has an IC50 (EJ) of under 10 µM, an IC50 (A-431) of under 10 µM and an IC50 (MCF7) of under 10 µM. For the same molecule, the IC50 (KB) was under 10 µM, the IC50 (SW480) was under 10 µM and the IC50 (SK-MEL3) was under 10 µM.
`CCn1cc(C(=O)O)c(=O)c2cc(F)c(N3CCN(C/C(=N/OCc4ccccc4)c4ccc(Cl)s4)CC3)cc21` showed an IC50 (EJ) of under 10 µM, an IC50 (A-431) of under 10 µM and an IC50 (MCF7) of under 10 µM. For the same molecule, the IC50 (KB) was under 10 µM, the IC50 (SW480) was under 10 µM and the IC50 (SK-MEL3) was under 10 µM.
Work on `CCn1cc(C(=O)O)c(=O)c2cc(F)c(N3CCN(C/C(=N/OC)c4ccc(Cl)s4)CC3)nc21` yielded an IC50 (EJ) of under 10 µM, an IC50 (A-431) of under 10 µM and an IC50 (MCF7) of under 10 µM. The IC50 (KB) was under 10 µM, the IC50 (SW480) was under 10 µM and the IC50 (SK-MEL3) was under 10 µM.
`CCN1CCN(c2cc3c(cc2F)c(=O)c(-c2nn4c(-c5cn(C6CC6)c6cc(N7CCN(CC)CC7)c(F)cc6c5=O)nnc4s2)cn3C2CC2)CC1` gave an IC50 (L1210 [5]) of 1.2 µM.
Work on `CCN1CCN(c2cc3c(cc2F)c(=O)c(-c2nnc4sc(-c5cn(C6CC6)c6cc(N7CCNCC7)c(F)cc6c5=O)nn24)cn3C2CC2)CC1` yielded an IC50 (L1210 [5]) of 0.2 µM.
For `CCN1CCN(c2cc3c(cc2F)c(=O)c(-c2nnc4sc(-c5cn(C6CC6)c6cc(N7CCN(C)CC7)c(F)cc6c5=O)nn24)cn3C2CC2)CC1`, the IC50 (L1210 [5]) was 2.5 µM.
With `CC1COc2c(N3CCN(C)CC3)c(F)cc3c(=O)c(-c4nn(CN(C)C)c(=S)n4/N=C/c4ccccc4O)cn1c23` (centres undefined) the IC50 at 48 h [6] was 0.14 µM, the IC50 (HL-60 [7]) was 0.14 µM and the IC50 (L1210 [8]) was 0.14 µM.
With `COc1ccc(/C=N/n2c(-c3cn4c5c(c(N6CCN(C)CC6)c(F)cc5c3=O)OCC4C)nn(CN(C)C)c2=S)cc1O` (centres undefined) the IC50 at 48 h [6] was 0.14 µM, the IC50 (HL-60 [7]) was 0.14 µM and the IC50 (L1210 [8]) was 0.14 µM.
`CCn1cc(C(=O)O)c(=O)c2cc(F)c(N3CCN(CP(=S)(c4ccccc4)c4ccccc4)CC3)cc21` showed an IC50 (A549) of 150 µM and an IC50 (CT26) of 150 µM.
With `CC1COc2c(N3CCN(C)CC3)c(F)cc3c(=O)c(-c4n[nH]c(=S)n4/N=C/c4ccccc4O)cn1c23` (centres undefined) the IC50 at 48 h [6] was 10.5 µM, the IC50 (HL-60 [7]) was 10.5 µM and the IC50 (L1210 [8]) was 10.5 µM.
With `CCn1cc(C(=O)O)c(=O)c2cc(F)c(N3CCN(CP(c4ccccc4)c4ccccc4)CC3)cc21` the IC50 (A549) was 150 µM and the IC50 (CT26) was 150 µM.
`COc1cc(/C=N/n2c(-c3cn4c5c(c(N6CCN(C)CC6)c(F)cc5c3=O)OCC4C)n[nH]c2=S)ccc1O` (centres undefined) gave an IC50 at 48 h [6] of 10.5 µM, an IC50 (HL-60 [7]) of 10.5 µM and an IC50 (L1210 [8]) of 10.5 µM.
In the case of `O=C(O)c1cn(C2CC2)c2cc(N3CCN(CP(=O)(c4ccccc4)c4ccccc4)CC3)c(F)cc2c1=O`, the IC50 (A549) is reported as 150 µM and the IC50 (CT26) is reported as 150 µM.
With `O=C(N/N=C/c1ccc([N+](=O)[O-])cc1)c1cn(C2CC2)c2cc(N3CCNCC3)c(F)cc2c1=O` the IC50 (HL-60 [2]) was 25 µM, the IC50 [3] was 25 µM and the IC50 (L1210 [4]) was 25 µM.
`CCN1CCN(c2cc3c(cc2F)c(=O)c(-c2nnc(S)n2N)cn3C2CC2)CC1` showed an IC50 (L1210 [5]) of at most 50 µM.
`CCn1cc(C(=O)O)c(=O)c2cc(F)c(N3CCN(CP(=O)(c4ccccc4)c4ccccc4)CC3)cc21` showed an IC50 (A549) of 150 µM and an IC50 (CT26) of 150 µM.
In the case of `CCn1cc(C(=O)O)c(=O)c2cc(F)c(N3CCN(S(=O)(=O)c4ccc(Cl)cc4)CC3)cc21`, the GI50 [1] is reported as 2.63 µM.
For `O=C(O)c1cn(C2CC2)c2cc(N3CCN(CP(c4ccccc4)c4ccccc4)CC3)c(F)cc2c1=O`, the IC50 (A549) was 150 µM and the IC50 (CT26) was 150 µM.
`CCn1cc(C(=O)O)c(=O)c2cc(F)c(N3CCN(CP(=[Se])(c4ccccc4)c4ccccc4)CC3)cc21` showed an IC50 (A549) of 150 µM and an IC50 (CT26) of 150 µM.
With `COc1ccc(/C=N/n2c(-c3cn4c5c(c(N6CCN(C)CC6)c(F)cc5c3=O)OCC4C)n[nH]c2=S)cc1O` (centres undefined) the IC50 at 48 h [6] was 10.5 µM, the IC50 (HL-60 [7]) was 10.5 µM and the IC50 (L1210 [8]) was 10.5 µM.
With `O=C(O)c1cn(C2CC2)c2cc(N3CCN(CP(=S)(c4ccccc4)c4ccccc4)CC3)c(F)cc2c1=O` the IC50 (A549) was 150 µM and the IC50 (CT26) was 150 µM.
In the case of `O=C(O)c1cn(C2CC2)c2cc(N3CCN(CP(=[Se])(c4ccccc4)c4ccccc4)CC3)c(F)cc2c1=O`, the IC50 (A549) is reported as 150 µM and the IC50 (CT26) is reported as 150 µM.
For `COc1cc(/C=N/n2c(-c3cn4c5c(c(N6CCN(C)CC6)c(F)cc5c3=O)OCC4C)nn(CN(C)C)c2=S)ccc1O` (centres undefined), the IC50 at 48 h [6] was 0.14 µM, the IC50 (HL-60 [7]) was 0.14 µM and the IC50 (L1210 [8]) was 0.14 µM.
`CCn1cc(C(=O)O)c(=O)c2cc(F)c(N3CCN(CC(=O)c4ccccc4)CC3)cc21` showed a GI50 [1] of 22 µM.
For `COc1ccc(C(=O)CN2CCN(c3cc4c(cc3F)c(=O)c(C(=O)O)cn4-c3ccc(N)cc3F)CC2)cc1`, the GI50 [1] was 22 µM.
Work on `CCn1cc(C(=O)O)c(=O)c2cc(F)c(N3CCN(CC(=O)c4ccc(OC)cc4)CC3)c(F)c21` yielded a GI50 [1] of 22 µM.
In the case of `CCn1cc(C(=O)O)c(=O)c2cc(F)c(N3CCNCC3)nc21` [ENOXACIN], the IC50 (EJ) is reported as over 128 µM, the IC50 (A-431) is reported as over 128 µM and the IC50 (MCF7) is reported as over 128 µM. For the same molecule, the IC50 (KB) was over 128 µM, the IC50 (SW480) was over 128 µM and the IC50 (SK-MEL3) was over 128 µM.
For `C#Cc1cccc(Nc2ncnc3cc(OCCOC)c(OCCOC)cc23)c1` [ERLOTINIB], the GI50 [1] was 7.29 µM.
With `O=c1[nH]cc(F)c(=O)[nH]1` [FLUOROURACIL] the GI50 [1] was 22.6 µM.
For `CCn1cc(C(=O)O)c(=O)c2cc(F)c(N3CCNCC3)cc21` [NORFLOXACIN], the IC50 (EJ) was over 128 µM, the IC50 (A-431) was over 128 µM and the IC50 (MCF7) was over 128 µM. The IC50 (L1210 [5]) was over 150 µM, the IC50 (A549) was 330 µM and the IC50 (KB) was over 128 µM. The IC50 (SW480) was over 128 µM, the IC50 (SK-MEL3) was over 128 µM and the IC50 (CT26) was 330 µM.
